Results as given in publication PMC10002517, “Inhibition of Transglutaminase 2 as a Therapeutic Strategy in Celiac Disease—In Vitro Studies in Intestinal Cells and Duodenal Biopsies” (International Journal of Molecular Sciences, 2023).

Columns and labels:
[1] = target: T1, extracellular TG2 on Caco-2 cells (Homo sapiens, UniProt P21980); experiment: Extracellular TG2 activity on confluent Caco-2 cell monolayers (5BP cross-linking); assay type: cell-based; settings: n = 4; for reduction of TG2 activity on the cell surface: IFN-γ-stimulated Caco-2 cells, 5BP 3 h
T1 construct: endogenous in cells; host or cells: Caco-2 (differentiated; IFN-γ-stimulated in the monolayer assay)
T1 sequence (P21980 1-687): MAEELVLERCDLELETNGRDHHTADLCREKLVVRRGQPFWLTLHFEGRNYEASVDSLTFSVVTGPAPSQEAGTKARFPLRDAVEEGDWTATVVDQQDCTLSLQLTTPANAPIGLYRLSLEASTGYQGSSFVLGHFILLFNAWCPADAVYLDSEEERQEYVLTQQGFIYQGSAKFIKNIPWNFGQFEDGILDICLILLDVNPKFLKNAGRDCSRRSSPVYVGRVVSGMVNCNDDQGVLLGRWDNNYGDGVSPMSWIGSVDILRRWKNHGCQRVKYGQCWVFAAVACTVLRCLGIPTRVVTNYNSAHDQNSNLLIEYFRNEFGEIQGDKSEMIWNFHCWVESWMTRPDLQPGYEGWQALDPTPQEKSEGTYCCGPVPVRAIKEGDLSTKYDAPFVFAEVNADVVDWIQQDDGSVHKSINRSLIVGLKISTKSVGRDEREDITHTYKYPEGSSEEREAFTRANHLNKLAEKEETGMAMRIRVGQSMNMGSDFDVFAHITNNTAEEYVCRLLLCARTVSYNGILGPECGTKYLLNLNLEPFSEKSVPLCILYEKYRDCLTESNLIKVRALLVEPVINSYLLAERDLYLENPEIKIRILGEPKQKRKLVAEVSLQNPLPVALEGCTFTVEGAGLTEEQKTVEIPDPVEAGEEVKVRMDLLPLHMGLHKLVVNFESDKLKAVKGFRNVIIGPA
Method: The method was adapted from Yi et al.. To induce TG2 expression, Caco-2 cells were stimulated with IFN-γ 1000 IU/mL for 48 h. Then, cells were washed three times with warm PBS and incubated with the substrate 5BP for 3 h at 37 °C in 50 mM Tris and 1 mM EDTA (pH 7.5). The substances ERW1041, PX-12 and DTT were added to this solution when indicated. After incubation, cells were washed three times with PBS, fixed with 4% paraformaldehyde for 10 min and blocked with 5% BSA in PBS at 4 °C overnight. Then, cells were incubated at room temperature with streptavidin-Alexa488 (Thermo Scientific, 4 µg/mL) in 5% BSA in the dark for 1 h, followed by three washes with PBS. Fluorometric quantitation was conducted using a FLUOstar Optima microplate reader (BMG Labtech, filter settings: excitation 485 nm, emission 525 nm). Manual gain adjustment was performed, setting the well with the most intense signal as 95%. In all experiments, data were background subtracted against a control without 5BP substrate.

[2] = test system: transepithelial passage of P56-88 in Caco-2 cells; experiment: Transepithelial transport of promofluor-conjugated gliadin peptide P56-88 across Caco-2 monolayers (fluorometry); assay type: cell-based, human; settings: 3 h; for transepithelial passage of P56-88 (relative basal fluorescence): 7 µg/mL peptide apical in HBSS, normalized to no inhibitor, mean ± SD, n = 3
Method: Transepithelial transport of immunogenic and toxic gliadin peptides were examined in Caco-2 cells 7–14 days after confluency. Caco-2 cells were seeded on semi-permeable transwell supports (ThinCert, culture surface: 33.6 mm², pore size: 0.4 µm) in 24-well plates (Greiner Bio One, Pleidelsheim, Germany). Prior to the transport experiments, the integrity of the cell monolayer was tested by measuring the transepithelial electric resistance (TEER) using a volt-ohm meter (Millipore, Schwalbach, Germany). Monolayers with insufficient TEER (<350 Ω/cm^2) were omitted. The synthesis and purification of promofluor-conjugated gliadin peptides were described elsewhere. Cells were either incubated with the immunogenic peptide P56-88 ([…]) or the toxic gliadin peptide P31-43 (LGQQQPFPPQQPY), 7 µg/mL each, in Hank’s balanced salt solution (HBSS) for 3 h. To investigate the role of TG2 on the transport of gliadin peptides, incubation was performed in the presence of ERW1041 and PX-12. After 3 h, basal and apical supernatants were collected, and the relative fluorescence of the basal compartment was quantified using a FLUOstar Optima (BMG Labtech) microplate reader. Background subtraction was performed against conditions, where no labeled peptides were used. Normalization was performed against conditions, where no inhibitors were used.

[3] = target: T2, TG2 in Caco-2 cell lysates (Homo sapiens, UniProt P21980); experiment: Transglutaminase activity in Caco-2 whole cell lysates (5BP cross-linking); assay type: biochemical; settings: 10 µM inhibitor (b1); lysate of differentiated Caco-2 cells incubated with 5BP and inhibitor overnight; mean ± SD, n = 3
T2 construct: endogenous in cells; host or cells: Caco-2 (differentiated; IFN-γ-stimulated in the monolayer assay)
T2 sequence (P21980 1-687): T1 sequence (P21980 1-687)
Method: The method to investigate TG2 activity from whole cell lysates was adapted from Lin et al.. In brief, 20 µg protein per cavity on the 96-well plate were incubated in 50 mM Tris, 1 mM EDTA, 5 mM calcium chloride (pH 7.5) buffer in the presence of 500 µM 5BP (5-biotinamidopentylamine, Thermo Fisher Scientific, Langenselbold, Germany) for the indicated time. After incubation, the plate was washed three times with PBS + 0.05% Tween. After blocking with 5% BSA in PBS for 1 h, the plate was incubated with 2 µg/mL streptavidin-Alexa Fluor 488 (Thermo Fisher Scientific) in 5% BSA. After 3 washing steps with PBS + 0.05% Tween, fluorometric evaluation was performed using a Clariostar Plus (BMG Labtech) microplate reader (no well scan mode, excitation 488 nm, emission 535 nm, fixed gain: 2000).

[4] = test system: uptake of P56-88 by Caco-2 cells; experiment: Epithelial uptake of P56-88 by Caco-2 cells (confocal microscopy); assay type: cell-based, human; settings: confocal microscopy
Method: For microscopic evaluation, Caco-2 cells were seeded on polymer-covered µ-slides (80826, Ibidi) and incubated for 1 h with labeled gliadin peptides in the presence of TG2 inhibitors. After three washes with PBS, cells were fixed with 4% paraformaldehyde. Nuclear staining was performed for 10 min using Hoechst fluorescent stain (1:1000 in PBS). Imaging was done using a confocal laser scanning microscope (TE2000-E, Nikon) and a 60× Plan Apo (NA 1.41) immersion oil objective. Processing of z-stacks, including 3D reconstruction, was performed using ImageJ [46]. For quantitation, z-stack images were taken with the same microscope settings. Using ImageJ, maximum intensity projections were obtained of the z-stack images, and the fluorescence intensity was measured within the whole image.

Caco-2 cells = experiment: Resazurin-based cell viability assay (PrestoBlue HS); parameters: species or system human; settings: confluent Caco-2 cells, 24 h in medium, n = 3
Method: The cell viability of Caco-2 cells was examined using PrestoBlue HS (A13261, (Thermo Fisher Scientific). In brief, Caco-2 cells (7–8 days after confluency) were incubated with PX-12 or ERW1041 at the indicated concentrations for 24 h in full medium. As a positive control, cells were incubated with 4% PFA for 10 min. After washing with PBS, cells were incubated with PrestoBlue HS diluted 1:10 in culture medium for 2 h at 37 °C. Fluorometric examination was conducted using a Clariostar Plus (no well scan mode, bottom optic measurement, excitation 545 nm, emission 600 nm, fixed gain: 800). Every experiment was performed in duplicates with at least three technical replicates. Normalization was performed against conditions, where cells were not treated with TG2 inhibitors.

[5] = 1 h incubation with peptide and inhibitor, n = 3
[6] = up to a concentration of 100 µM

reduction of TG2 activity on the cell surface ([1]; 10 µM) | reduction of TG2 activity on the cell surface ([1]; 100 µM) [%] | TG2 activity in Caco-2 cell lysates [3] [%] | uptake of P56-88 by Caco-2 cells ([4]; 100 µM inhibitor, 1 h) | Compound | transepithelial passage of P56-88 (relative basal fluorescence) ([2]; 1 µM inhibitor) [%] | transepithelial passage of P56-88 (relative basal fluorescence) ([2]; 100 µM inhibitor) [%] | uptake of P56-88 by Caco-2 cells [4, 5] | cell viability (Caco-2 cells; 200 µM and 500 µM) | cell viability (Caco-2 cells; [6]) | inhibition of TG2 on confluent Caco-2 monolayers ([1]; concentrations between 10 nM and 100 µM) | effect on the epithelial translocation of P56-88 [2]
about 32% | ~70 | 45 ± 19 | nearly absent | O=C(NC[C@@H]1CC(Br)=NO1)[C@@H]1CCCN1C(=O)OCc1cnc2ccccc2c1 [ERW1041] | 33 ± 22 | 24 ± 16 | reduced the uptake of P56-88 in a dose-dependent manner | significantly reduced cell viability | did not affect cell viability | – | –
– | – | 12 ± 7 | – | CCC(C)SSc1ncc[nH]1 (stereo not drawn) [PX-12, 2-[(1-methylpropyl)dithio]-1H-imidazole] | – | – | did not affect the uptake of P56-88 | significantly reduced cell viability | did not affect cell viability | did not observe any significant inhibition of TG2 | no significant effect
